Active and inactive are the calls of the source.
How the values were obtained:
[1] = target: T1, Adenosylmethionine-8-amino-7-oxononanoate aminotransferase (Mycobacterium tuberculosis, UniProt P9WQ81); assay: Mycobacterium tuberculosis BioA enzyme inhibitor Measured in Biochemical System Using Plate Reader - 2163-02_Inhibitor_Dose_CherryPick_Activity.; format: functional, Mycobacterium tuberculosis UT205
T1 sequence (P9WQ81 whole entry): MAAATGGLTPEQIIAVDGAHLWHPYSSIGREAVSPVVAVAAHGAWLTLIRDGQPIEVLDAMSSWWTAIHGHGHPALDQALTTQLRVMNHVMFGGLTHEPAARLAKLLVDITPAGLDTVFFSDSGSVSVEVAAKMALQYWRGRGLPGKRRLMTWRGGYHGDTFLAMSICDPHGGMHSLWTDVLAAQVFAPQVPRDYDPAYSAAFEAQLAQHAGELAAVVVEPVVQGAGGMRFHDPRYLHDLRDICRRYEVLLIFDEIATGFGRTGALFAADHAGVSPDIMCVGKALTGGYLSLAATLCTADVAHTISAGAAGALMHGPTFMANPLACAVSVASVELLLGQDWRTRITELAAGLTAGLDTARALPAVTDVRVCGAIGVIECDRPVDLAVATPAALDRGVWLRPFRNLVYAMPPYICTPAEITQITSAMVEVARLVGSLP

Hexokinase HKDC1 = target: T2, Hexokinase HKDC1 (Homo sapiens, UniProt Q2TB90); assay: HKDC1 hexokinase inhibitors, dose response, biochemical, W721R variant (AID 504729); format: functional
T2 sequence (Q2TB90 whole entry): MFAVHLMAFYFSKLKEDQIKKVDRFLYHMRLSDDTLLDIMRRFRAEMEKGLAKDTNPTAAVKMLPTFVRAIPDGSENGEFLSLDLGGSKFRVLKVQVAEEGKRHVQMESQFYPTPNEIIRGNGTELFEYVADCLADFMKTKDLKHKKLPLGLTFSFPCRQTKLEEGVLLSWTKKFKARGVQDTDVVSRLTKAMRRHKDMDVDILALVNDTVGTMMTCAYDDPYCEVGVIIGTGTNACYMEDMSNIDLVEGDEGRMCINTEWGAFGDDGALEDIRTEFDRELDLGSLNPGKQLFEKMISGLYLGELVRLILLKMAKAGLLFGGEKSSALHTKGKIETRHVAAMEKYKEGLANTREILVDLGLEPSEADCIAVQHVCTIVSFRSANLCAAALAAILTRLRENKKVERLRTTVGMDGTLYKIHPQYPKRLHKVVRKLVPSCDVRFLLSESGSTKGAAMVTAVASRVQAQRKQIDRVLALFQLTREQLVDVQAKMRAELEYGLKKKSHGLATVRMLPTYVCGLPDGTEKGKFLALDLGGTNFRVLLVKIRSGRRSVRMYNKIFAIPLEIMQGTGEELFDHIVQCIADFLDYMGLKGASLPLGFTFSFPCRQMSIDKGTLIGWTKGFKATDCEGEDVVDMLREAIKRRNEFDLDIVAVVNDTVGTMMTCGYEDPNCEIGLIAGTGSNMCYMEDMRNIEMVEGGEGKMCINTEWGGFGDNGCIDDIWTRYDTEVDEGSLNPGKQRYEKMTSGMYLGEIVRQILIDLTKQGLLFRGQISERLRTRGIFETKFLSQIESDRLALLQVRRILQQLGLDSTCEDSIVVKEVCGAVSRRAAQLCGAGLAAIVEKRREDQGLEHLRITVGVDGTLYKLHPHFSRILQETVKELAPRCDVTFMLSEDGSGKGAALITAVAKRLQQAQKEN

Aspartyl aminopeptidase = Aspartyl aminopeptidase (Plasmodium falciparum 3D7, UniProt Q8I2J3)
Procathepsin L = Procathepsin L (Homo sapiens, UniProt P07711)
Oxytocin receptor = Oxytocin receptor (Homo sapiens, UniProt P30559); assay: Fluorescence-based cell-based high throughput dose response assay for agonists of the Oxytocin Receptor (OXTR). [Related pubchem assays: 2435 (Primary screen (OXTR agonists in singlicate)), 434991 (Counterscreen (V1R agonists in triplicate)), 2482 (Summary (OXTR agonists)), 434963 (Confirmation screen (OXTR agonists in triplicate))]; format: functional
Vasopressin V1a receptor = Vasopressin V1a receptor (Homo sapiens, UniProt P37288); assay: Counterscreen for Oxytocin Receptor (OXTR) agonists: Fluorescence-based cell-based high throughput dose response assay to identify agonists of the vasopressin 1 receptor (V1R). [Related pubchem assays: 2435 (Primary screen (OXTR agonists in singlicate)), 434991 (Counterscreen (V1R agonists in triplicate)), 2482 (Summary (OXTR agonists)) …; format: functional
[2] = target: T3, Dual specificity protein phosphatase 3 (Homo sapiens, UniProt P51452); assay: SAR VHR1 Fluorescent Assay for In Vitro dose response studies. [Related pubchem assays (depositor defined):AID1654, AID1661, AID1878, AID1992, AID2004, AID2070, AID2085]; format: functional
[3] = target: T4, Dual specificity protein phosphatase 6 (Rattus norvegicus, UniProt Q64346); format: functional
T4 sequence (Q64346 whole entry): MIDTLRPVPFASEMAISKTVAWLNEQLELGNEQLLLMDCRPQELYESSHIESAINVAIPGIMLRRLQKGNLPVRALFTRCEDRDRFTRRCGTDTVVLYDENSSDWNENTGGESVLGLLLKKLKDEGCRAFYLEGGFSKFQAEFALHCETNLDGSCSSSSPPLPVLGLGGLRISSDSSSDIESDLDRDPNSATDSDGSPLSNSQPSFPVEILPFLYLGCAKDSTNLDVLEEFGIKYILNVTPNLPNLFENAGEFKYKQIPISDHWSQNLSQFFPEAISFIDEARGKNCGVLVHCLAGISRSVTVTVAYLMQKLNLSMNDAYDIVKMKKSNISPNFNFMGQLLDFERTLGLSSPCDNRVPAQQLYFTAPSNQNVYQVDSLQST

[4] = target: T5, Tyrosine-protein phosphatase non-receptor type 7 (Homo sapiens, UniProt P35236); assay: redox-dependent HePTP inhibition, mechanism study, biochemical, fluorescence (AID 2068); format: functional
T5 sequence (P35236 whole entry): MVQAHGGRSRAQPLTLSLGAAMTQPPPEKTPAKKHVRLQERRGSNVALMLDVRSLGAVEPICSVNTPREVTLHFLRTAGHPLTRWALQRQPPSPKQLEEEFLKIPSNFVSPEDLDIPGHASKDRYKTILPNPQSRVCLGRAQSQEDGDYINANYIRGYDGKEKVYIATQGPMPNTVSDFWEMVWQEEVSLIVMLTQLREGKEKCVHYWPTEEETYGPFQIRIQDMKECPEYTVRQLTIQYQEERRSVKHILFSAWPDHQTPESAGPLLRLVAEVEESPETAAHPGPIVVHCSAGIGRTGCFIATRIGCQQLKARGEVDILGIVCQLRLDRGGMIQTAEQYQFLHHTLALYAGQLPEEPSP

[5] = target: T4, Dual specificity protein phosphatase 6
[6] = target: T5, Tyrosine-protein phosphatase non-receptor type 7; format: functional
[7] = target: T3, Dual specificity protein phosphatase 3; assay: MOA VHR1 Fluorescent secondary assay for identification of redox-state modulating compounds. [Related pubchem assays (depositor defined):AID1654, AID1661, AID1878, AID1957]
[8] = target: Glyceraldehyde-3-phosphate dehydrogenase (Homo sapiens, UniProt P04406)
Chain of Glyceraldehyde-3-phosphate dehydrogenase (P04406 whole entry): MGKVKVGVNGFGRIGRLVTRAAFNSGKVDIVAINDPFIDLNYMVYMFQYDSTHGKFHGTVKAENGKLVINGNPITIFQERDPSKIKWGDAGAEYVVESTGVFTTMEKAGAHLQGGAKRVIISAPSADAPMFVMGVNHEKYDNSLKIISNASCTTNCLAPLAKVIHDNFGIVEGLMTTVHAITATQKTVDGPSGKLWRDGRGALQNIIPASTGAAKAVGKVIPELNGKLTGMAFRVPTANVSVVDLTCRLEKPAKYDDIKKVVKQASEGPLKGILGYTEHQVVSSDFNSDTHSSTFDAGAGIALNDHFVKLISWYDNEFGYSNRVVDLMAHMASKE

T3 sequence (P51452 whole entry): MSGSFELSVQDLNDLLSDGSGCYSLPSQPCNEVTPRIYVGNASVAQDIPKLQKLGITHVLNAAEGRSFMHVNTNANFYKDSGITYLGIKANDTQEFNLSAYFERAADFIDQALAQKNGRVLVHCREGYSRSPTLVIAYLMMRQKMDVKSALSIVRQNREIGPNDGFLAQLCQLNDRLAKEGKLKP
Chain of Procathepsin L (P07711 whole entry): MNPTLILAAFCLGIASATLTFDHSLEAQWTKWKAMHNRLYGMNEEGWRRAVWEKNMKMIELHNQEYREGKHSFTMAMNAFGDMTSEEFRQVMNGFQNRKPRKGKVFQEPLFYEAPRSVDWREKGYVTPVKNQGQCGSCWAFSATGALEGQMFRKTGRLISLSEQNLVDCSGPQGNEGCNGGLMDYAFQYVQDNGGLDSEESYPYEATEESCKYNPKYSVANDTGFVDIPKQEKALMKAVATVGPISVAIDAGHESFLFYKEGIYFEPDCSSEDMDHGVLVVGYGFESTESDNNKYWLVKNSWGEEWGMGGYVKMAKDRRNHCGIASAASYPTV
Chain of Aspartyl aminopeptidase (Q8I2J3 whole entry): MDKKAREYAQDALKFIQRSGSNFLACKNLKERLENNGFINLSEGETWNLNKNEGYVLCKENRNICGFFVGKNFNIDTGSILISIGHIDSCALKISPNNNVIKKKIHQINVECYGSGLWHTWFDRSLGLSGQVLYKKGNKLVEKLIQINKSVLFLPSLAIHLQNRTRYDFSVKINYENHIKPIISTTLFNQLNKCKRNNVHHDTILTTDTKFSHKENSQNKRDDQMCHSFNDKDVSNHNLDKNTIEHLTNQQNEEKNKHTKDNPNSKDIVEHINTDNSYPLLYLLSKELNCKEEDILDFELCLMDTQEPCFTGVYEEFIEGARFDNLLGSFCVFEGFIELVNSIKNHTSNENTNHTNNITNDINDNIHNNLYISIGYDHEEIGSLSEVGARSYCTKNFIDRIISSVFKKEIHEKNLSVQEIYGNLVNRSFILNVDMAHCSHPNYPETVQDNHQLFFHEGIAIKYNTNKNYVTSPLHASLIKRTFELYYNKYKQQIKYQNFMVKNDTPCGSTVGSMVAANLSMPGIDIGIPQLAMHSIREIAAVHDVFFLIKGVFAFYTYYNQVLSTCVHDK
Chain of Vasopressin V1a receptor (P37288 whole entry): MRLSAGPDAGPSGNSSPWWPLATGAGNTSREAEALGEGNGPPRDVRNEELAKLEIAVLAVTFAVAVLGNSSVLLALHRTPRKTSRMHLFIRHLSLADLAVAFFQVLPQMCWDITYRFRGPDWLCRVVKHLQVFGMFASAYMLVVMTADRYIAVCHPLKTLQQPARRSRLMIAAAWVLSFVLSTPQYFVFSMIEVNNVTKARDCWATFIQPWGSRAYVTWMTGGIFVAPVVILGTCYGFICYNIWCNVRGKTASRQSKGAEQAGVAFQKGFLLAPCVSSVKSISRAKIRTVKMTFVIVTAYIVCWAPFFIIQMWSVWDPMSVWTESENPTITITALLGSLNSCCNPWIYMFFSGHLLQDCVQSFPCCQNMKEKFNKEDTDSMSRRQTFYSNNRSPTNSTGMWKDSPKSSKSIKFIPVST
Chain of Oxytocin receptor (P30559 whole entry): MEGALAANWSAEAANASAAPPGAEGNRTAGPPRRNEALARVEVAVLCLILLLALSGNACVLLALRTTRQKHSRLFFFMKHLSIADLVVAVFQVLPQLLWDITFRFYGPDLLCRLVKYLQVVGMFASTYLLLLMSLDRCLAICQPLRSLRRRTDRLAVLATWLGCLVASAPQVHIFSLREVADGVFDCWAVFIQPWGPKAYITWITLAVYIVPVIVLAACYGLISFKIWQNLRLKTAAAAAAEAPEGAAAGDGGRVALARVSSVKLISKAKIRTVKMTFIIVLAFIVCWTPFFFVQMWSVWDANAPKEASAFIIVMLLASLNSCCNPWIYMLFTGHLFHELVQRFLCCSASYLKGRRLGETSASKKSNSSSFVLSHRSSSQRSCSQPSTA

O=C(CSc1nnc(-c2cccnc2)[nH]1)Nc1ccnc2ccccc12
AC50 [1]: 6.07 µM (active)
IC50 (Hexokinase HKDC1): 13.1 µM (active)

O=C(Nc1cccc([N+](=O)[O-])c1)Nn1cnnc1
IC50 (Aspartyl aminopeptidase): 0.93 µM (active)
IC50 (Procathepsin L): > 59.6 µM (not active)

Cc1cc(-c2nnc(SCC(=O)Nc3ccccc3C(F)(F)F)o2)c(C)n1-c1ccccc1
EC50 (Oxytocin receptor): > 29.9 µM (not active)
EC50 (Vasopressin V1a receptor): > 29.9 µM (not active)

O=c1/c(=C/c2ccco2)sc2nc3cc(Br)cnc3n12
IC50 [2]: 1.23 µM (active)
IC50 [3]: 6.58 µM (active)
IC50 [4]: 0.127 µM (active)
IC50 [5]: 4.4 µM (active)
IC50 [6]: 0.543 µM (active)
IC50 [7]: 0.345 µM (active)
IC50 [8]: 27.8 µM (active)

— ChEMBL document CHEMBL1201862, “PubChem BioAssay data set” (2004)
